Experimental data from PMC5630020 (Genes & Development, 2017).

Legend:
[1] = target: T1, MglA–SspA complex (heterodimer) (Francisella tularensis, UniProt Q5NFG1+Q5NHJ6)
[2] = target: T1, MglA–SspA complex (heterodimer); test: biochemical

T1 sequence (Q5NFG1 1-205): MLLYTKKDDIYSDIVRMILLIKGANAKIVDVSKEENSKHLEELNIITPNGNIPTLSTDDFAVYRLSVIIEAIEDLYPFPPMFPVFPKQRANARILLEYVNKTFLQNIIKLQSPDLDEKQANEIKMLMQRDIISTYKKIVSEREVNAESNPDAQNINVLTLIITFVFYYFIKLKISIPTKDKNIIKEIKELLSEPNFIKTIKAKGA
T1 sequence (Q5NHJ6 1-210): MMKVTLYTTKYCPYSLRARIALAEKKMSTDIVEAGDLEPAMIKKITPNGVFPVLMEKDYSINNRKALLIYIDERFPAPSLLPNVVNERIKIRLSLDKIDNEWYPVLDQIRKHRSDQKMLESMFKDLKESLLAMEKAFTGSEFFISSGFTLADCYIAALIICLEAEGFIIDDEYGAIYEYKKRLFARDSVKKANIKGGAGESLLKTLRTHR

Row | Structure (SMILES) | DRaCALA competition against 32P-ppGpp [1] | Kd [2] [µM]
1 | Nc1nc2c(ncn2[C@@H]2O[C@H](COP(=O)(O)OP(=O)(O)OP(=O)(O)O)[C@@H](O)[C@H]2O)c(=O)[nH]1 [GTP] | GTP competed weakly, and ATP, CTP, and UTP showed no detectable competition | 
2 | Nc1nc2c(ncn2[C@@H]2O[C@H](COP(=O)(O)OP(=O)(O)O)[C@@H](OP(=O)(O)OP(=O)(O)O)[C@H]2O)c(=O)[nH]1 [ppGpp] |  | ~12
